# US10144746B2 (GLOBAL BLOOD THERAPEUTICS, INC., priority 2015, dated 2018)
# Target: Human plasma kallikrein (Homo sapiens (Human), UniProt P03952)
# Experiment: In vitro plasma kallikrein inhibition assay (chromogenic substrate D-Pro-Phe-Arg-pNa, absorbance at 405 nm, IC50 determination)
# Format: biochemical
# Conditions: not given
# Human plasma kallikrein, sequence (P03952 391-638): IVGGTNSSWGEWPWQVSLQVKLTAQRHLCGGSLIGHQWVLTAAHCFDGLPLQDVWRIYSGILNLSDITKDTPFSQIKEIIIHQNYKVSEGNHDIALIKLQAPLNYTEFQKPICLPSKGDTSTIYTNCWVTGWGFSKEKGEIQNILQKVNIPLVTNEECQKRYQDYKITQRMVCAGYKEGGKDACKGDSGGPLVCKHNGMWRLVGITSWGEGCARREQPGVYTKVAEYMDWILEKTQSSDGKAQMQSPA
# Human plasma kallikrein, sequence (P03952 20-390 partner): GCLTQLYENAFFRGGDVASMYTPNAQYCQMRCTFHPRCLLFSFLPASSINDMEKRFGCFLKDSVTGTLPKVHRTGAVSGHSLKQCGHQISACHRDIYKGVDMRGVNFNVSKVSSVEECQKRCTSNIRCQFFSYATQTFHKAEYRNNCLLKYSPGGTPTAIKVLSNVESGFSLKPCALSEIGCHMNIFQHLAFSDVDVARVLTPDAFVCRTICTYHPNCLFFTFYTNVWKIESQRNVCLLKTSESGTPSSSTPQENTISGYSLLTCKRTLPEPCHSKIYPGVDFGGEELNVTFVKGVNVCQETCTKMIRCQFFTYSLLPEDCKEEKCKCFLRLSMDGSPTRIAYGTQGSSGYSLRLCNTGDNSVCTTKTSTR
row,Molecule,KLKB1 pIC50
1,"CCc1cc2c(cc1-c1ccc(F)cc1F)C1OC2c2ccc(C(=O)NCc3c(C)cc(N)nc3C)cc21 (racemic) [Example 321, (±)-N-[(6-amino-2,4-dimethyl-pyridin-3-yl)methyl]-12-(2,4-difluorophenyl)-11-ethyl-15-oxatetracyclo[6.6.1.0^2,^7.0^9,1^4] pentadeca-2,4,6,9(14),10,12-hexaene-4-carboxamide and (±)-N-[(6-amino-2,4-dimethylpyridin-3-yl)methyl]-11-(2,4-difluorophenyl)-12-ethyl-15-oxatetracyclo [6.6.1.0^2,^7.0^9,1^4]pentadeca-2,4,6,9(14),10,12-hexaene-4-carboxamide]",8.09
2,"(±)-N-[(6-amino-2,4- dimethylpyridin-3-yl) methyl]-12-(2,4- difluorophenyl)tetracyclo- [6.6.1.0^2,^7.0^9,1^4]hexadeca- 2,4,6,9,11,13-hexaene-4- carboxamide and (±)-N-[(6- amino-2,4-dimethylpyridin- 3-yl)methyl]-11-(2,4- difluorophenyl)tetracyclo [6.6.1.0^2,^7.0^9,1^4]hexadeca- 2,4,6,9,11,13-hexaene-4- carboxamide [Example 261]",6.32
3,"CON=C(N)c1ccc(CNC(=O)c2ccc3c(c2)[C@@H]2O[C@H]3c3ccc(C4CC4)cc32)cc1 [Example 272, (1R,8S)-12-cyclopropyl-N-({4-[N′-methoxy-carbamimidoyl]phenyl}methyl)-15-oxatetracyclo[6.6.1.0^2,^7.0^9,1^4] pentadeca-2,4,6,9,11,13-hexaene-4-carboxamide]",5.61
4,"CON=C(N)c1cc(F)c(CNC(=O)c2ccc3c(c2)[C@@H]2O[C@H]3c3ccc(-c4ccc(F)cc4F)cc32)c(F)c1 [Example 255, (1R,8S)-N-({2,6-difluoro-4-[N′-methoxy-carbamimidoyl]phenyl}methyl)-12-(2,4-difluorophenyl)-15-oxatetracyclo[6.6.1.0^2,^7.0^9,1^4]-pentadeca-2,4,6,9,11,13-hexaene-4-carboxamide]",6.18
5,Cc1cc(N)nc(C)c1CNC(=O)c1ccc2c(c1)[C@H]1O[C@@H]2c2ccc(-c3ccc(F)cc3F)cc21,4.44
6,CON=C(N)c1ccc(CNC(=O)c2ccc3c(c2)[C@@H]2O[C@H]3c3ccc(-c4ccc(F)cc4F)cc32)cc1 [Example 225],5
7,"NC(=NO)c1ccc(CNC(=O)c2ccc3c(c2)[C@@H]2O[C@H]3c3ccc(-c4ccccc4F)cc32)cc1 [Example 204, (1R,8S)-12-(2-fluorophenyl)-N-{[4-(N′-hydroxycarbamimidoyl)phenyl]methyl}-15-oxatetracyclo[6.6.1.0^2,^7.0^9,1^4] pentadeca-2,4,6,9,11,13-hexaene-4-carboxamide]",6.03
8,Cc1cc(N)nc(C)c1CNC(=O)c1ccc2c(c1)C1OC2c2ccc(-c3ccccc3F)cc21 (centres unmarked),6.91

# Same assay, conditions: read-out: KLKB1 pIC50 (converted)
row,Molecule,IC50 [nM]
1,"CC(C)c1ccc2c(c1)[C@H]1O[C@@H]2c2ccc(C(=O)NCc3ccc(C(=N)N)cc3)cc21 (single isomer, unassigned) [Example 328]",7.08
2,"Cc1cc2c(c(C)c1CNC(=O)c1ccc3c(c1)C1OC3c3ccc(Cn4cccn4)cc31)CNC2 (racemic) [Example 161, (±)-N-[(4,6-dimethyl-2,3-dihydro-1H-isoindol-5-yl)methyl]-12-[(1H-pyrazol-1-yl)methyl]-15-oxatetracyclo[6.6.1.0^2,^7.0^9,1^4]-pentadeca-2,4,6,9,11,13-hexaene-4-carboxamide]",1290
3,"O=C(NC1CCCNCC1)c1ccc2c(c1)[C@@H]1O[C@H]2c2ccc(-c3ccc(F)cc3F)cc21 (single isomer, unassigned) [Example 343]",100000
4,"Cc1cc(N)nc(C)c1CNC(=O)c1ccc2c(c1)C1OC2c2cc(-c3ccccc3)c(-c3ccccc3)cc21 (racemic) [Example 314, (±)-N-[(6-amino-2,4-dimethyl-pyridin-3-yl)-methyl]-11,12-diphenyl-15-oxatetracyclo-[6.6.1.0^2,^7.0^9,1^4]pentadeca-2,4,6,9,11,13-hexaene-4-carboxamide]",871
5,"Cc1cc(N)nc(C)c1CNC(=O)c1ccc2c(c1)C1OC2c2ccc(C(=O)c3ccccc3)cc21 (racemic) [Example 188, (±)-N-[(6-amino-2,4-dimethylpyridin-3-yl)methyl]-12-benzoyl-15-oxatetracyclo-[6.6.1.0^2,^7.0^9,1^4]pentadeca-2,4,6,9,11,13-hexaene-4-carboxamide]",10
6,"N=C(N)c1ccc(CNC(=O)c2ccc3c(c2)[C@@H]2O[C@H]3c3ccc(-c4ccc(Cl)s4)cc32)cc1 (single isomer, unassigned) [Example 217]",2
7,"Nc1noc2c(CNC(=O)c3ccc4c(c3)[C@@H]3O[C@H]4c4ccc(-c5ccccc5F)cc43)cccc12 (single isomer, unassigned) [Example 237]",10000
8,"CC(C)(O)c1ccc2c(c1)[C@H]1O[C@@H]2c2ccc(C(=O)NCc3ccc(C(=N)N)cc3)cc21 (single isomer, unassigned) [Example 277]",35.5
9,Cc1cc(N)nc(C)c1CNC(=O)c1ccc2c(c1)C1OC2c2ccc(-c3ccc(F)c(F)c3F)cc21 (racemic) [Example 104],28.2
10,"COc1cc(CNC(=O)c2ccc3c(c2)[C@@H]2O[C@H]3c3ccc(-c4ccc(F)cc4F)cc32)ccc1C(=N)N (single isomer, unassigned) [Example 338]",5.89
11,"N=C(N)c1ccc(CNC(=O)c2ccc3c(c2)[C@H]2O[C@@H]3c3cc(C4CC4)c(C4CC4)cc32)cc1 (single isomer, unassigned) [Example 399]",100
12,"Cc1cc(N)nc(C)c1CNC(=O)c1ccc2c(c1)[C@@H]1O[C@H]2c2ccc(C(=O)c3cccc(F)c3)cc21 (single isomer, unassigned) [Example 228]",12
13,"Cc1cc(N)nc(C)c1CNC(=O)c1ccc2c(c1)C1OC2c2ccc(-c3c(F)cc(F)cc3Cl)cc21 (racemic) [Example 146, (±)-N-[(6-amino-2,4-dimethylpyridin-3-yl)-methyl]-12-(2-chloro-4,6-difluorophenyl)-15-oxatetracyclo[6.6.1.0^2,^7.0^9,1^4] pentadeca-2,4,6,9,11,13-hexaene-4-carboxamide]",148
14,"Cc1cc(N)nc(C)c1CNC(=O)c1ccc2c(c1)C1OC2c2ccc(-c3c(C)cc(F)cc3F)cc21 (racemic) [Example 141, (±)-N-[(6-amino-2,4-dimethlpyridin-3-yl)-methyl]-12-(2,4-difluoro-6-methylphenyl)-15-oxatetracyclo[6.6.1.0^2,^7.0^9,1^4] pentadeca-2,4,6,9,11,13-hexaene-4-carboxamide]",105
15,"Cc1cc(N)nc(C)c1CNC(=O)c1ccc2c(c1)[C@@H]1O[C@H]2c2ccc(N(C)c3cccc(Cl)c3)cc21 (single isomer, unassigned) [Example 262]",8.91
16,"Cc1cc(N)nc(C)c1CNC(=O)c1ccc2c(c1)[C@@H]1O[C@H]2c2ccc(NC(=O)c3ccccc3)cc21 (single isomer, unassigned) [Example 229]",10000
17,"N=C(N)c1ccc(CNC(=O)c2ccc3c(c2)[C@@H]2O[C@H]3c3ccc(C4CC4)cc32)c(F)c1 (single isomer, unassigned) [Example 302]",1
18,"Cc1cc(N)nc(C)c1CNC(=O)c1ccc2c(c1)C1OC2c2ccc(-c3cccc(C(F)(F)F)c3C#N)cc21 (racemic) [Example 158, (±)-N-[(6-amino-2,4-dimethylpyridin-3-yl)-methyl]-12-[2-cyano-3-(trifluoromethyl)phenyl]-15-oxatetracyclo[6.6.1.0^2,^7.0^9,1^4] pentadeca-2,4,6,9,11,13-hexaene-4-carboxamide]",112
19,"CCc1cc2c(cc1CC)C1OC2c2ccc(C(=O)NCc3ccc(C(=N)N)cc3)cc21 (racemic) [Example 315, (±)-N-[(4-carbamimidoylphenyl)methyl]-11,12-diethyl-15-oxatetracyclo[6.6.1.0^2,^7.0^9,1^4]-pentadeca-2,4,6,9(14),10,12-hexaene-4-carboxamide]",1.82
20,"Cc1cc(N)nc(C)c1CNC(=O)c1ccc2c(c1)[C@@H]1O[C@H]2c2ccc(N(c3cccc(F)c3)C(C)C)cc21 (single isomer, unassigned) [Example 249]",93.3
21,"Cc1cc(N)nc(C)c1CNC(=O)c1ccc2c(c1)[C@@H]1O[C@H]2c2ccc(Cn3cc(F)cn3)cc21 (single isomer, unassigned) [Example 178]",1
22,"N=C(N)c1cc(F)c(CNC(=O)c2ccc3c(c2)[C@@H]2O[C@H]3c3ccc(C4CC4)cc32)c(F)c1 (single isomer, unassigned) [Example 280]",0.759
23,"Cc1ccc(-c2ccc3c(c2)C2OC3c3ccc(C(=O)NCc4c(F)cc5c(c4C)CNC5)cc32)c(C#N)c1 (racemic) [Example 143, (±)-12-(2-cyano-4-methylphenyl)-N-[(6-fluoro-4-methyl-2,3-dihydro-1H-isoindol-5-yl)methyl]-15-oxatetracyclo [6.6.1.0^2,^7.0^9,1^4]pentadeca-2,4,6,9,11,13-hexaene-4-carboxamide]",288
24,"Cc1cc(N)nc(C)c1CNC(=O)c1ccc2c(c1)[C@@H]1O[C@H]2c2ccc(Cn3ccccc3=O)cc21 (single isomer, unassigned) [Example 224]",1
25,"Cc1cc(N)nc(C)c1CNC(=O)c1ccc2c(c1)C1OC2c2cc(C3CC3)c(C3CC3)cc21 (racemic) [Example 311, (±)-N-[(6-amino-2,4-dimethyl-pyridin-3-yl)-methyl]-11,12-dicyclopropyl-15-oxatetracyclo [6.6.1.0^2,^7.0^9,1^4]pentadeca-2,4,6,9,11,13-hexaene-4-carboxamide]",32.4
26,"Cc1cc(C(=N)N)cc(C)c1CNC(=O)c1ccc2c(c1)[C@@H]1O[C@H]2c2ccc(-c3ccc(F)cc3F)cc21 (single isomer, unassigned) [Example 199]",0.741
27,"Cc1cc(N)nc(C)c1CNC(=O)c1ccc2c(c1)C1OC2c2ccc(-c3ccc(C(F)(F)F)c(F)c3F)cc21 (racemic) [Example 119, (±)-N-[(6-amino-2,4-dimethylpyridin-3-yl)-methyl]-12-[2,3-difluoro-4-(trifluoromethyl)-phenyl]-15-oxatetracyclo[6.6.1.0^2,^7.0^9,1^4] pentadeca-2,4,6,9,11,13-hexaene-4-carboxamide]",427
